Test system: P12-Ichikawa
Experiment: cell viability relative to DMSO control; higher = less cytotoxic
Details: 48 h
How it was run: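 NOMO1 or SEM (500 cells/well) or P12-Ichikawa (1000 cells/well) leukemia cells were adapted for at least four passages in each medium. They were seeded in 1536-well plates (5 μl) and pin-dosed with library compounds in DMSO over an 11-point threefold series, 47 μM to 0.79 nM. CellTiter-Glo One luminescence was read after 48 h at 37°C. Viability is the per-plate percentage relative to DMSO wells, with cell-free wells as background.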

[1] = HPLM + 10% dialyzed FBS, 0.000781 µM
[2] = HPLM + 10% dialyzed FBS, 0.00234 µM
[3] = HPLM + 10% dialyzed FBS, 0.00702 µM
[4] = HPLM + 10% dialyzed FBS, 0.0211 µM
[5] = HPLM + 10% dialyzed FBS, 0.0632 µM
[6] = HPLM + 10% dialyzed FBS, 0.19 µM
[7] = HPLM + 10% dialyzed FBS, 0.569 µM
[8] = HPLM + 10% dialyzed FBS, 1.71 µM
[9] = HPLM + 10% dialyzed FBS, 5.12 µM
[10] = HPLM + 10% dialyzed FBS, 15.4 µM
[11] = HPLM + 10% dialyzed FBS, 46.1 µM
[12] = RPMI 5 mM glucose + 10% FBS, 0.000781 µM
[13] = RPMI 5 mM glucose + 10% FBS, 0.00234 µM
[14] = RPMI 5 mM glucose + 10% FBS, 0.00702 µM
[15] = RPMI 5 mM glucose + 10% FBS, 0.0211 µM
[16] = RPMI 5 mM glucose + 10% FBS, 0.0632 µM
[17] = RPMI 5 mM glucose + 10% FBS, 0.19 µM
[18] = RPMI 5 mM glucose + 10% FBS, 0.569 µM
[19] = RPMI 5 mM glucose + 10% FBS, 1.71 µM
[20] = RPMI 5 mM glucose + 10% FBS, 5.12 µM
[21] = RPMI 5 mM glucose + 10% FBS, 15.4 µM
[22] = RPMI 5 mM glucose + 10% FBS, 46.1 µM
[23] = RPMI 5 mM glucose + 10% dialyzed FBS, 0.000781 µM
[24] = RPMI 5 mM glucose + 10% dialyzed FBS, 0.00234 µM
[25] = RPMI 5 mM glucose + 10% dialyzed FBS, 0.00702 µM
[26] = RPMI 5 mM glucose + 10% dialyzed FBS, 0.0211 µM
[27] = RPMI 5 mM glucose + 10% dialyzed FBS, 0.0632 µM
[28] = RPMI 5 mM glucose + 10% dialyzed FBS, 0.19 µM
[29] = RPMI 5 mM glucose + 10% dialyzed FBS, 0.569 µM
[30] = RPMI 5 mM glucose + 10% dialyzed FBS, 1.71 µM
[31] = RPMI 5 mM glucose + 10% dialyzed FBS, 5.12 µM
[32] = RPMI 5 mM glucose + 10% dialyzed FBS, 15.4 µM
[33] = RPMI 5 mM glucose + 10% dialyzed FBS, 46.1 µM

| Compound | cell viability [1] [%] | cell viability [2] [%] | cell viability [3] [%] | cell viability [4] [%] | cell viability [5] [%] | cell viability [6] [%] | cell viability [7] [%] | cell viability [8] [%] | cell viability [9] [%] | cell viability [10] [%] | cell viability [11] [%] | cell viability [12] [%] | cell viability [13] [%] | cell viability [14] [%] | cell viability [15] [%] | cell viability [16] [%] | cell viability [17] [%] | cell viability [18] [%] | cell viability [19] [%] | cell viability [20] [%] | cell viability [21] [%] | cell viability [22] [%] | cell viability [23] [%] | cell viability [24] [%] | cell viability [25] [%] | cell viability [26] [%] | cell viability [27] [%] | cell viability [28] [%] | cell viability [29] [%] | cell viability [30] [%] | cell viability [31] [%] | cell viability [32] [%] | cell viability [33] [%] |
| --- | --- | --- | --- | --- | --- | --- | --- | --- | --- | --- | --- | --- | --- | --- | --- | --- | --- | --- | --- | --- | --- | --- | --- | --- | --- | --- | --- | --- | --- | --- | --- | --- | --- |
| CCOc1cc(/C=C2/C(=O)N(c3ccccc3)N=C2C)cc(Cl)c1OCC(=O)OC | 85.7 | 90.9 | 87.7 | 93.7 | 84.6 | 89.9 | 91.1 | 98.7 | 88.3 | 84.6 | 83.3 | 79.4 | 89.3 | 77.2 | 85.7 | 81 | 92.8 | 89.1 | 86.6 | 89.8 | 80.9 | 89.6 | 90.1 | 85.7 | 92 | 88 | 83 | 88.5 | 85 | 86.9 | 86.9 | 90.7 | 86.5 |
| Cc1cc(SCc2sc(-c3ccc(C(F)(F)F)cc3)nc2C)ccc1OCC(=O)O | 97.8 | 102 | 102 | 104 | 102 | 99.8 | 106 | 100 | 103 | 94.9 | 90.6 | 98.3 | 104 | 96.6 | 101 | 106 | 91.2 | 101 | 94.6 | 94.8 | 81.1 | 83.2 | 96.8 | 101 | 102 | 96.6 | 94.8 | 97 | 101 | 92.5 | 97.6 | 87.2 | 83.5 |
| CN1\N=N/C2=C(N=C[N]2C1=O)C(N)=O | 127 | 124 | 125 | 121 | 128 | 125 | 134 | 127 | 128 | 115 | 88.8 |  |  |  |  |  |  |  |  |  |  |  |  |  |  |  |  |  |  |  |  |  |  |
| CO[C@@H]1[C@@H](OC(N)=O)[C@@H](O)[C@H](OC2=CC=C3\C(=C(NC(=O)C4=CC=C([O-])C(=C4)CC=C(C)C)/C(=O)OC3=C2C)O)OC1(C)C | 118 | 108 | 119 | 115 | 111 | 106 | 110 | 104 | 102 | 100 | 100 | 107 | 108 | 124 | 110 | 114 | 110 | 113 | 110 | 108 | 94.2 | 97.8 | 109 | 105 | 109 | 110 | 105 | 106 | 108 | 109 | 98 | 98.5 | 88.3 |
